From US11773094B2, “Farnesoid X receptor agonists and uses thereof” (Metacrine, Inc., priority 2018, dated 2023) come the findings set out here.

This assay deals with T1, hFXR (Homo sapiens, UniProt Q96RI1).
T1 construct: expressed in transfected cells; host or cells: CV-1 cells
T1 sequence (Q96RI1 1-486): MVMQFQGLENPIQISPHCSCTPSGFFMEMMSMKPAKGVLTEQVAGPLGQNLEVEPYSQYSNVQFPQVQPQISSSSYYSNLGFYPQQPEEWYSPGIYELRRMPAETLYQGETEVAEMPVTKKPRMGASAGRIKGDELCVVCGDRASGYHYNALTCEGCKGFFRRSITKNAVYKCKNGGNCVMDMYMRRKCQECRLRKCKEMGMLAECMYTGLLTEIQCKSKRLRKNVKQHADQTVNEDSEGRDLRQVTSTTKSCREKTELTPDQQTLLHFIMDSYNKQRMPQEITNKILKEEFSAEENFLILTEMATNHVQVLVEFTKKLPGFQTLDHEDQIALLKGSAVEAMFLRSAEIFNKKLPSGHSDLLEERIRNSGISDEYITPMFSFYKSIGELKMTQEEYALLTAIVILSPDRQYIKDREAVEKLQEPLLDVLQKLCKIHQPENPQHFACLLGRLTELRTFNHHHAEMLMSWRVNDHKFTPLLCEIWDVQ
T1 sequence (P19793 1-462 partner): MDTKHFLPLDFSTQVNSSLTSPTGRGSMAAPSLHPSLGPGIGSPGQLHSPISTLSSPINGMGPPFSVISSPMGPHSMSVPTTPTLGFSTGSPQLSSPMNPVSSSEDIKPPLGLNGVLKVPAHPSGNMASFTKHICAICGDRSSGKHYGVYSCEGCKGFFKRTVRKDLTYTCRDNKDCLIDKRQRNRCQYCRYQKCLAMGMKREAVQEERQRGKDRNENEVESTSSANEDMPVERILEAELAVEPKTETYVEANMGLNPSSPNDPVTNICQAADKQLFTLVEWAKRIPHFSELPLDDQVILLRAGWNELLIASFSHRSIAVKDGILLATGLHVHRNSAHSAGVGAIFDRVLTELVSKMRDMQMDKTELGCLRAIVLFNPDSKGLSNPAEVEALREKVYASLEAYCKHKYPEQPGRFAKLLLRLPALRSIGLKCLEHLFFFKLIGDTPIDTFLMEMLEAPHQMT
The experiment in a line: In Vitro FXR Assay (TK): TK-ECRE-luc reporter in transfected CV-1 cells. The assay is classed as cell-based. As to conditions: CV-1 cells transfected with hFXR, hRXR, pCMX-YFP, 18 hrs incubation, luminescence. On the procedure: Example B-1: In Vitro FXR Assay (TK)
CV-1 cells were seeded at a density of 2,000,000 cells in a T175 flask with DMEM+10% charcoal double-stripped FBS and incubated at 37° C. in 5% CO2 for 18 h (O/N).
After 18 h of incubation, the medium in the T175 flask was changed with fresh DMEM+10% charcoal super-stripped serum. In a polypropylene tube, 2500 μL OptiMEM (Life Technologies, Cat #31985-062) was combined with expression plasmids for hFXR, hRXR, TK-ECRE-luc and pCMX-YFP. The tube was then briefly vortexed and incubated at room temperature for 5 minutes. Transfection reagent (X-tremeGENE HP from Roche, Cat #06 366 236 001) was added to the OptiMEM/plasmid mixture vortexed and incubated at room temperature for 20 minutes. Following incubation, the transfection reagent/DNA mixture complex was added to cells in the T175 flask and the cells were incubated at 37° C. in 5% CO2 for 18 h (O/N).
Compounds were serially diluted in DMSO and added to transfected CV-1 cells. The cells were then incubated for 18 hrs. The next day cells were lysed and examined for luminescence.
The term EC50 denotes the concentration at which the effect is half-maximal. Turning to `COc1c(C)cc(C23CCC(CN(c4cncc(-c5cnn(C(C)(C)C)c5)n4)C(=O)[C@H]4CC[C@H](OC(=O)N5CC(O)C5)CC4)(CC2)CC3)cc1C` [Compound 3.13, 4-((6-(1-(tert-Butyl)-1H-pyrazol-4-yl)pyrazin-2-yl)((4-(4-methoxy-3,5-dimethylphenyl)bicyclo[2.2.2]octan-1-yl)methyl)carbamoyl) (trans-cyclohexyl) 3-hydroxyazetidine-1-carboxylate], the EC50 is 10 to 1000 nM. Consider `COc1ccc([C@H]2CC[C@H](CN(c3cc(-c4coc(C(C)(C)C)n4)ccn3)C(=O)[C@H]3CC[C@H](OC(=O)NC4CCOCC4)CC3)CC2)cc1C` [Compound 1.07, trans-4-((4-(2-(tert-Butyl)oxazol-4-yl)pyridin-2-yl)(((trans)-4-(4-methoxy-3-methylphenyl)cyclohexyl)methyl)carbamoyl) cyclohexyl (tetrahydro-2H-pyran-4-yl)carbamate], for which the EC50 lay within 10 to 1000 nM. Take `COc1ccc(C23CCC(CN(c4cc(-c5coc(C(C)(C)C)n5)ccn4)C(=O)[C@H]4CC[C@H](OC(=O)N5CC(O)C5)CC4)(CC2)CC3)cc1C` [Compound 3.10, 4-((4-(2-(tert-Butyl)oxazol-4-yl)pyridin-2-yl)((4-(4-methoxy-3-methylphenyl)bicyclo[2.2.2]octan-1-yl)methyl)carbamoyl)cyclohexyl 3-hydroxyazetidine-trans-1-carboxylate]: the EC50 is at most 10 nM. To `COc1ccc(C23CCC(CN(c4cc(-c5cnc(C(C)(C)C)s5)ccn4)C(=O)[C@H]4CC[C@H](OC(=O)NCCCO)CC4)(CC2)CC3)cc1C` [Compound 2.02, 4-((4-(2-(tert-Butyl)thiazol-5-yl)pyridin-2-yl)((4-(4-methoxy-3-methylphenyl)bicyclo[2.2.2]octan-1-yl)methyl)carbamoyl) (trans-cyclohexyl) (3-hydroxypropyl)carbamate] belongs at most 10 nM.

As for `COc1c(C)cc(C23CCC(CN(c4cc(-c5cnn(C(C)(C)C)c5)ccn4)C(=O)[C@H]4CC[C@H](OC(=O)N5CC(O)C5)CC4)(CC2)CC3)cc1C` [Compound 3.04, 4-((4-(1-(tert-Butyl)-1H-pyrazol-4-yl)pyridin-2-yl)((4-(4-methoxy-3,5-dimethylphenyl)bicyclo[2.2.2]octan-1-yl)methyl)carbamoyl) (trans-cyclohexyl) 3-hydroxyazetidine-1-carboxylate], the EC50 is at most 10 nM. To `COc1ccc([C@H]2CC[C@H](CN(c3cc(-c4coc(C(C)(C)C)n4)ccn3)C(=O)[C@H]3CC[C@H](OC(=O)N4CC(O)C4)CC3)CC2)cc1C` [Compound 1.04, trans-4-((4-(2-(tert-Butyl)oxazol-4-yl)pyridin-2-yl)(((trans)-4-(4-methoxy-3-methylphenyl)cyclohexyl)methyl)carbamoyl) cyclohexyl 3-hydroxyazetidine-1-carboxylate] belongs 10 to 1000 nM. Regarding `COc1ccc(C23CCC(CN(c4cc(-c5cnn(C(C)(C)C)c5)ccn4)C(=O)[C@H]4CC[C@H](OC(=O)NC5CCOCC5)CC4)(CC2)CC3)cc1C` [Compound 3.01, 4-((4-(1-(tert-Butyl)-1H-pyrazol-4-yl)pyridin-2-yl)((4-(4-methoxy-3-methylphenyl)bicyclo[2.2.2]octan-1-yl)methyl)carbamoyl) cyclohexyl (tetrahydro-2H-pyran-4-yl)trans-carbamate], the EC50 was at most 10 nM. `COc1ccc([C@H]2CC[C@H](CN(c3cc(-c4coc(C(C)(C)C)n4)ccn3)C(=O)[C@H]3CC[C@H](OC(=O)N4CC(O)C4(C)C)CC3)CC2)cc1C` (stereo partly drawn) [Compound 1.05, trans-4-((4-(2-(tert-Butyl)oxazol-4-yl)pyridin-2-yl)(((trans)-4-(4-methoxy-3-methylphenyl)cyclohexyl)methyl)carbamoyl) cyclohexyl 3-hydroxy-2,2-dimethylazetidine-1-carboxylate]: the EC50 was in the range of 10 to 1000 nM.
